# Results from patent publication US10435399B2, “HDAC6 inhibitory heterocyclic compound” (TAKEDA PHARMACEUTICAL COMPANY LIMITED, priority 2017, dated 2019).
# Target: T1, HDAC6 enzyme (Homo sapiens, UniProt Q9UBN7)
# T1 construct: transducing full length HDAC6 gene into Sf-9 insect cells; GST; purchased SignalChem; host or cells: Sf-9 insect cells
# T1 sequence (Q9UBN7 1-1215): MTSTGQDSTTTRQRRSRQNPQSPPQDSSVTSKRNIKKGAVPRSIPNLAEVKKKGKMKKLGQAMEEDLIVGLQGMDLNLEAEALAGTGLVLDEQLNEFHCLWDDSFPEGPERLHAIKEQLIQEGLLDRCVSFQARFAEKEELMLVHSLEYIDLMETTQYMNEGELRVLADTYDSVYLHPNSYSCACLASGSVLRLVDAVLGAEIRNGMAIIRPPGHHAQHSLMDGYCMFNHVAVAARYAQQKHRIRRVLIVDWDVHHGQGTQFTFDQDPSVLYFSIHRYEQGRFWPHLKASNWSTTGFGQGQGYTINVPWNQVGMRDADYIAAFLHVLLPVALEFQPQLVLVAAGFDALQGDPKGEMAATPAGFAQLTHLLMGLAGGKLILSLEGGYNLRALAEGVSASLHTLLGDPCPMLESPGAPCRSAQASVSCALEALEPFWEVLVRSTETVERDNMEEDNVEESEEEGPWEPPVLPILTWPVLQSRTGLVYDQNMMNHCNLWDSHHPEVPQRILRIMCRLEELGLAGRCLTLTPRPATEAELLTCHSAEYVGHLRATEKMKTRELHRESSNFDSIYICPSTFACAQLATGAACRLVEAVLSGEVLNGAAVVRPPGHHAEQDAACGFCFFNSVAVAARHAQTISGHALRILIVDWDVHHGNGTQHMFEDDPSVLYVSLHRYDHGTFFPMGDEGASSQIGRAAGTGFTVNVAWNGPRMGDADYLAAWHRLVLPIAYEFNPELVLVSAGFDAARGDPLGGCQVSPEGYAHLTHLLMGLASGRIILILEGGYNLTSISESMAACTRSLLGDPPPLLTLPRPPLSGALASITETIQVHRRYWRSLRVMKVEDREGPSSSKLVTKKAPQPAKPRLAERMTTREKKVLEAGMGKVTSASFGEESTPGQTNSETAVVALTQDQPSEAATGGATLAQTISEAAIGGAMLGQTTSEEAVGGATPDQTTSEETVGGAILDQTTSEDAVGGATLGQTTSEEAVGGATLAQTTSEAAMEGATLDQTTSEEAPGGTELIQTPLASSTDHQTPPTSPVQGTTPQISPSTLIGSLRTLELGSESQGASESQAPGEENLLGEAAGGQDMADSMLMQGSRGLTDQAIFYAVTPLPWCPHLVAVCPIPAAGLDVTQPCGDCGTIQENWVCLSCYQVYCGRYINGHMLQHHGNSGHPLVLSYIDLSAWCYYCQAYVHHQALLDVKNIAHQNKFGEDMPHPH
# Test: HDAC6 enzyme inhibitory activity (HDAC-Glo I/II Assay kit)
# Format: biochemical
# Conditions: 10 μM; wells without enzyme = 100% inhibition; read-out: HDAC6 inhibitory rate (%) (10 μM)
# Method in brief: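 Luminescent HDAC-Glo I/II readout after 20 min room-temperature reaction with substrate-developer, following 60 min compound–enzyme preincubation. Enzyme: full-length HDAC6 from Sf-9 cells, GST-purified; buffer 24 mM Tris-HCl pH 7.5, 0.01% Tween-20, glutathione, salts. Wells lacking enzyme define 100% inhibition.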
row,SMILES,inhibition at 10 µM [%]
1,"O=C(CCC(F)(F)F)N[C@@H]1CCCC[C@H]1N1Cc2ccc(-c3nnc(C(F)F)o3)cc2C1=O [Example 65, N-((1R,2R)-2-(6-(5-(difluoromethyl)-1,3,4-oxadiazol-2-yl)-1-oxo-1,3-dihydro-2H-isoindol-2-yl)cyclohexyl)-4,4,4-trifluorobutanamide]",100
2,"COC1(C(=O)N[C@@H]2CCCC[C@H]2N2Cc3ccc(-c4nnc(C(F)F)o4)cc3C2=O)CC1 [Example 68, N-((1R,2R)-2-(6-(5-(difluoromethyl)-1,3,4-oxadiazol-2-yl)-1-oxo-1,3-dihydro-2H-isoindol-2-yl)cyclohexyl)-1-methoxycyclopropanecarboxamide]",101
3,"O=C(N[C@@H]1CCCC[C@H]1N1Cc2ccc(-c3nnc(C(F)F)o3)cc2C1=O)C1CC1F (stereo partly drawn) [Example 70, N-((1R,2R)-2-(6-(5-(difluoromethyl)-1,3,4-oxadiazol-2-yl)-1-oxo-1,3-dihydro-2H-isoindol-2-yl)cyclohexyl)-2-fluorocyclopropanecarboxamide]",100
4,"O=C(N[C@@H]1CCCC[C@H]1N1Cc2ccc(-c3nnc(C(F)F)o3)cc2C1=O)C1CC1C(F)F (stereo partly drawn) [Example 71, 2-(difluoromethyl)-N-((1R,2R)-2-(6-(5-(difluoromethyl)-1,3,4-oxadiazol-2-yl)-1-oxo-1,3-dihydro-2H-isoindol-2-yl)cyclohexyl)cyclopropanecarboxamide (optical isomer)]",97
5,"O=C(N[C@@H]1CCCC[C@H]1N1Cc2ccc(-c3nnc(C(F)F)o3)cc2C1=O)C1CC12CCC2 (stereo partly drawn) [Example 72, N-((1R,2R)-2-(6-(5-(difluoromethyl)-1,3,4-oxadiazol-2-yl)-1-oxo-1,3-dihydro-2H-isoindol-2-yl)cyclohexyl)spiro[2.3]hexane-1-carboxamide (optical isomer)]",97
6,"CC1CC1C(=O)N[C@@H]1CCCC[C@H]1N1Cc2ccc(-c3nnc(C(F)F)o3)cc2C1=O (stereo partly drawn) [Example 73, N-((1R,2R)-2-(6-(5-(difluoromethyl)-1,3,4-oxadiazol-2-yl)-1-oxo-1,3-dihydro-2H-isoindol-2-yl)cyclohexyl)-2-methylcyclopropanecarboxamide]",100
7,"O=C(N[C@@H]1CCCC[C@H]1N1Cc2ccc(-c3nnc(C(F)F)o3)cc2C1=O)C1CC1(F)F (stereo partly drawn) [Example 74, N-((1R,2R)-2-(6-(5-(difluoromethyl)-1,3,4-oxadiazol-2-yl)-1-oxo-1,3-dihydro-2H-isoindol-2-yl)cyclohexyl)-2,2-difluorocyclopropanecarboxamide (optical isomer)]",102
8,"O=C(N[C@@H]1CCCC[C@H]1N1Cc2ccc(-c3nnc(C(F)F)o3)cc2C1=O)C1CC2(CCC2)C1 [Example 79, N-((1R,2R)-2-(6-(5-(difluoromethyl)-1,3,4-oxadiazol-2-yl)-1-oxo-1,3-dihydro-2H-isoindol-2-yl)cyclohexyl)spiro[3.3]heptane-2-carboxamide]",97
9,"O=C1c2cc(-c3nnc(C(F)F)o3)ccc2CN1[C@@H]1CCCC[C@H]1NC(=O)C12CC(C(F)(F)F)(C1)C2 [Example 80, N-((1R,2R)-2-(6-(5-(difluoromethyl)-1,3,4-oxadiazol-2-yl)-1-oxo-1,3-dihydro-2H-isoindol-2-yl)cyclohexyl)-3-(trifluoromethyl)bicyclo[1.1.1]pentane-1-carboxamide]",101
10,"CC(C)(O)C(=O)N[C@@H]1CCCC[C@H]1N1Cc2ccc(-c3nnc(C(F)F)o3)cc2C1=O [Example 81, N-((1R,2R)-2-(6-(5-(difluoromethyl)-1,3,4-oxadiazol-2-yl)-1-oxo-1,3-dihydro-2H-isoindol-2-yl)cyclohexyl)-2-hydroxy-2-methylpropanamide]",101

# The next lines start with the values.
row,inhibition at 10 µM [%],SMILES
1,96,"O=C1c2cc(-c3nnc(C(F)F)o3)ccc2CN1Cc1ccccn1 [Example 60, 6-(5-(difluoromethyl)-1,3,4-oxadiazol-2-yl)-2-(pyridin-2-ylmethyl)isoindolin-1-one]"
2,99,"Cc1cc(C)n([C@@H]2CCCC[C@H]2N2Cc3ccc(-c4nnc(C(F)F)o4)cc3C2=O)n1 [Example 61, 6-(5-(difluoromethyl)-1,3,4-oxadiazol-2-yl)-2-((1R,2R)-2-(3,5-dimethyl-1H-pyrazol-1-yl)cyclohexyl)isoindolin-1-one]"
3,99,"CC(C)(C)OC(=O)N[C@@H]1CCCC[C@H]1N1Cc2ncc(-c3nnc(C(F)F)o3)cc2C1=O [Example 62, tert-butyl ((1R,2R)-2-(3-(5-(difluoromethyl)-1,3,4-oxadiazol-2-yl)-5-oxo-5,7-dihydro-6H-pyrrolo[3,4-b]pyridin-6-yl)cyclohexyl)carbamate]"
4,99,"O=C(CC1CC1)N[C@@H]1CCCC[C@H]1N1Cc2ccc(-c3nnc(C(F)F)o3)cc2C1=O [Example 63, 2-cyclopropyl-N-((1R,2R)-2-(6-(5-(difluoromethyl)-1,3,4-oxadiazol-2-yl)-1-oxo-1,3-dihydro-2H-isoindol-2-yl)cyclohexyl)acetamide]"
5,100,"O=C(CCC(F)F)N[C@@H]1CCCC[C@H]1N1Cc2ccc(-c3nnc(C(F)F)o3)cc2C1=O [Example 64, N-((1R,2R)-2-(6-(5-(difluoromethyl)-1,3,4-oxadiazol-2-yl)-1-oxo-1,3-dihydro-2H-isoindol-2-yl)cyclohexyl)-4,4-difluorobutanamide]"
6,101,"CC(F)C(=O)N[C@@H]1CCCC[C@H]1N1Cc2ccc(-c3nnc(C(F)F)o3)cc2C1=O (stereo partly drawn) [Example 66, N-((1R,2R)-2-(6-(5-(difluoromethyl)-1,3,4-oxadiazol-2-yl)-1-oxo-1,3-dihydro-2H-isoindol-2-yl)cyclohexyl)-2-fluoropropanamide]"
7,100,"CCC(F)(F)C(=O)N[C@@H]1CCCC[C@H]1N1Cc2ccc(-c3nnc(C(F)F)o3)cc2C1=O [Example 67, N-((1R,2R)-2-(6-(5-(difluoromethyl)-1,3,4-oxadiazol-2-yl)-1-oxo-1,3-dihydro-2H-isoindol-2-yl)cyclohexyl)-2,2-difluorobutanamide]"
8,101,"CC1(C)CC1C(=O)N[C@@H]1CCCC[C@H]1N1Cc2ccc(-c3nnc(C(F)F)o3)cc2C1=O (stereo partly drawn) [Example 75, N-((1R,2R)-2-(6-(5-(difluoromethyl)-1,3,4-oxadiazol-2-yl)-1-oxo-1,3-dihydro-2H-isoindol-2-yl)cyclohexyl)-2,2-dimethylcyclopropanecarboxamide]"
9,101,"O=C1c2cc(-c3nnc(C(F)F)o3)ccc2CN1[C@@H]1CCCC[C@H]1NC(=O)C1(O)CCC1 [Example 76, N-((1R,2R)-2-(6-(5-(difluoromethyl)-1,3,4-oxadiazol-2-yl)-1-oxo-1,3-dihydro-2H-isoindol-2-yl)cyclohexyl)-1-hydroxycyclobutanecarboxamide]"
10,100,"O=C1c2cc(-c3nnc(C(F)F)o3)ccc2CN1[C@@H]1CCCC[C@H]1NC(=O)C1(F)CCC1 [Example 77, N-((1R,2R)-2-(6-(5-(difluoromethyl)-1,3,4-oxadiazol-2-yl)-1-oxo-1,3-dihydro-2H-isoindol-2-yl)cyclohexyl)-1-fluorocyclobutanecarboxamide]"
11,100,"N#CC1(C(=O)N[C@@H]2CCCC[C@H]2N2Cc3ccc(-c4nnc(C(F)F)o4)cc3C2=O)CCC1 [Example 78, 1-cyano-N-((1R,2R)-2-(6-(5-(difluoromethyl)-1,3,4-oxadiazol-2-yl)-1-oxo-1,3-dihydro-2H-isoindol-2-yl)cyclohexyl)cyclobutanecarboxamide]"
